{"source": "paper PMC6014686", "about": "“Thienopyrimidinone Based Sirtuin-2 (SIRT2)-Selective Inhibitors Bind in the Ligand Induced Selectivity Pocket” (Journal of Medicinal Chemistry, 2017)", "key": {"[1]": {"molecular_target": "T1, SIRT3 (Homo sapiens, UniProt Q9NTG7)", "T1 sequence (Q9NTG7 1-399)": "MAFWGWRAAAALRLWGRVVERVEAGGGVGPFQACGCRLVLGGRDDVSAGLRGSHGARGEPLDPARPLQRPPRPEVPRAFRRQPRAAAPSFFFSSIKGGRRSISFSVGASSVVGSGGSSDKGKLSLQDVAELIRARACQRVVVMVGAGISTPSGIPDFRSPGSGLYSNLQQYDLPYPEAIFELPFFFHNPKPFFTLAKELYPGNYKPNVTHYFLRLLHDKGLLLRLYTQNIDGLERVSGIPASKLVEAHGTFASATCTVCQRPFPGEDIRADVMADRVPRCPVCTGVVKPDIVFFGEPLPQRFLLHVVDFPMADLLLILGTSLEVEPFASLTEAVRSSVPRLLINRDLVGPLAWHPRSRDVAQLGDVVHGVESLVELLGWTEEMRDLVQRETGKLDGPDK", "set-up": "method as in PMID 25395356", "details": "reported earlier; cited from earlier work"}, "[2]": {"test_system": "Parkinsonian neuronal cell death model", "set-up": "method as in PMID 25395356", "details": "cited from earlier work"}, "[3]": {"molecular_target": "T2, SIRT1 (Homo sapiens, UniProt Q96EB6)", "T2 sequence (Q96EB6 1-747)": "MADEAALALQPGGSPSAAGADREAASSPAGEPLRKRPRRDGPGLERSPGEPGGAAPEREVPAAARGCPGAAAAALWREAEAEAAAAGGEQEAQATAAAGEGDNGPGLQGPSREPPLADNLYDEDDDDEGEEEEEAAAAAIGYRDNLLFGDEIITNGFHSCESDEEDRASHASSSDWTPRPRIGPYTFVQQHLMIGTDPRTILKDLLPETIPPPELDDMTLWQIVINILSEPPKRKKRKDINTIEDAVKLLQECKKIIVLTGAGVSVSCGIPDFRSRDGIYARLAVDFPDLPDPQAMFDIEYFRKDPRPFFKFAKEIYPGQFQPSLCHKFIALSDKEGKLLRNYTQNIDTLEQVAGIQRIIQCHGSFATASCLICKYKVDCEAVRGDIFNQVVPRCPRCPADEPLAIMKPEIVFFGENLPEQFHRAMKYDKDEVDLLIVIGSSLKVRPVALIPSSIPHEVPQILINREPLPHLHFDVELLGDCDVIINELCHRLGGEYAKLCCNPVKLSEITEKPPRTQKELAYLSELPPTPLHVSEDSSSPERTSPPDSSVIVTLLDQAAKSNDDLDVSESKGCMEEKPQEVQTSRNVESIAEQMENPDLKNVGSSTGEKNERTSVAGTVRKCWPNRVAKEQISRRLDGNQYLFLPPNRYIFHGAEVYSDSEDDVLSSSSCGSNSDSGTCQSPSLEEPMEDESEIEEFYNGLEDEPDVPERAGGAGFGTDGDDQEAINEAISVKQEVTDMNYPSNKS", "set-up": "method as in PMID 25395356", "details": "reported earlier; cited from earlier work"}, "[4]": {"test_system": "acetylated (lysine-40) α-tubulin in MCF-7 cells", "assay": "Tubulin acetylation assay, Western blot in MCF-7 cells with TSA", "details": "0-50 μM for 24 h with 50 nM TSA, N = 3"}, "[5]": {"test_system": "SIRT5", "set-up": "method as in PMID 25395356", "details": "cited from earlier work"}}}
{"smiles": "COc1ccc2ccccc2c1Cn1cnc2sc3c(c2c1=O)CCC(NCc1cccnc1)C3", "note": "(stereo not drawn) [19a]", "values": [{"measurement": "SIRT2/SIRT3 selectivity", "setting": "[1]", "result": ">100"}, {"measurement": "neuroprotection", "setting": "[2]", "result": "showed neuroprotection"}, {"measurement": "SIRT2/SIRT1 selectivity", "setting": "[3]", "result": ">100"}, {"measurement": "effect on α-tubulin acetylation level", "setting": "[4]", "result": "showed increased acetylated α-tubulin level at 20 μM and decreased level at 50 μM"}, {"measurement": "IC50", "setting": "[5]; Figure 1", "result": "> 100", "unit": "µM"}, {"measurement": "selectivity for SIRT2 in comparison to SIRT5", "setting": "[5]; previous study", "result": "more than 100"}]}
